Format in all cases: cell-based
One test concerns the target GSPT1 (Homo sapiens, UniProt P15170+Q96SW2). The test can be described thus: GSPT1 Cellular Degradation Assay (DF15-GSPT1-ePL). Also on record: expressed in transfected cells. Particulars: DF15-GSPT1-ePL cells, 20 hours. A digest of the protocol: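 Human DF15 cells co-expressing a GSPT1–ePL fusion were treated with compound in RPMI 1640/10% FBS for 20 h at 37 °C. GSPT1 level was read by enzyme-fragment-complementation luminescence after 60 min with detection reagent. The reference degrader at […] defined 75% response; DC50 and Dmax were reported.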

For another test, the target named is Cyclin E1 (Homo sapiens, UniProt P24864+Q96SW2). The test can be described thus: Cyclin E1 Cellular Degradation Assay (MSD). On the set-up: endogenous in cells; host or cells: OVCAR3. Particulars: for DC50 / Dmax: Cyclin E1 cellular degradation; for Dmax: maximum degradation; for Ratio of GSPT1 DC50/Cyclin E1 DC50: selectivity for degradation of Cyclin E1 over GSPT1. In short, it runs like this: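 OVCAR3 cells treated with compound for 24 h at 37 °C, lysed, and cyclin E1 measured by MSD sandwich immunoassay (rabbit capture, mouse detection anti-CCNE1). Reference degrader at […] defined 110% response; DC50 and Dmax derived from response.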

A further test concerns Phospho-Rb (Ser807/811). The experiment in a line: Phospho-Retinoblastoma (pRB) Cellular Assay. Particulars: Homo sapiens, OVCAR-3, NIH OVCAR3 cells, 24 hours; for IC50: concentration giving 50% response; for Emax: maximum response, reference compound at 10 μM = 100%, read-out: pRB Ymax. In short, it runs like this:
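OVCAR3 cells seeded overnight, then dosed with serial dilutions for 24 h at 37° C. Lysed with kit mix plus phosphatase inhibitor, ≥4 h at room temperature, read on EnVision; 100% response set by reference compound at 10 μM, giving IC50 and Ymax.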

GSPT1, sequence (P15170 whole entry, the tested form may be a part): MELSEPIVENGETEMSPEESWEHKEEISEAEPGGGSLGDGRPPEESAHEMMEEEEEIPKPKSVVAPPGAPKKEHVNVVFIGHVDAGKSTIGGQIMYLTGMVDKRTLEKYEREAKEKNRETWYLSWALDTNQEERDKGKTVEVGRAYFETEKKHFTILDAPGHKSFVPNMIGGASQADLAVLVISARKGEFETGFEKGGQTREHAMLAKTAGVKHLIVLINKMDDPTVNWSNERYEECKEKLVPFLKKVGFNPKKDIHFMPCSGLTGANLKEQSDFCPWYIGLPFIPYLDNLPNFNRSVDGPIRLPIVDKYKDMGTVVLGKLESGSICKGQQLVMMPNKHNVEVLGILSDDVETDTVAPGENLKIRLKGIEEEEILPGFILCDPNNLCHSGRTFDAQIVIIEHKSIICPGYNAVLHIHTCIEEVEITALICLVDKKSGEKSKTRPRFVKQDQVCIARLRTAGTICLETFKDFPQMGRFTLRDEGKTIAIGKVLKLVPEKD
GSPT1, sequence (Q96SW2 whole entry, the tested form may be a part): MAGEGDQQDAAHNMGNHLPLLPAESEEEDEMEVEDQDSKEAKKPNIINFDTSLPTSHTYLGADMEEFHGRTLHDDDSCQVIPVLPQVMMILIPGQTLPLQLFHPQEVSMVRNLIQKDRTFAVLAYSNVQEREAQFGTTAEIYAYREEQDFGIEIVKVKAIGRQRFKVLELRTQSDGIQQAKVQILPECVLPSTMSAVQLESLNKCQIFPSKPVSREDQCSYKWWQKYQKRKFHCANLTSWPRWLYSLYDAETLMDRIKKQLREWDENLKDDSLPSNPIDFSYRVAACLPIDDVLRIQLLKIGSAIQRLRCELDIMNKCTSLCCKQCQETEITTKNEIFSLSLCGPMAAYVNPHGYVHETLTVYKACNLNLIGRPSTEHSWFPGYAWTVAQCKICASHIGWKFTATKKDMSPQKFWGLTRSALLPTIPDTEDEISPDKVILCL
GSPT1, sequence (Q16531 whole entry partner, the tested form may be a part): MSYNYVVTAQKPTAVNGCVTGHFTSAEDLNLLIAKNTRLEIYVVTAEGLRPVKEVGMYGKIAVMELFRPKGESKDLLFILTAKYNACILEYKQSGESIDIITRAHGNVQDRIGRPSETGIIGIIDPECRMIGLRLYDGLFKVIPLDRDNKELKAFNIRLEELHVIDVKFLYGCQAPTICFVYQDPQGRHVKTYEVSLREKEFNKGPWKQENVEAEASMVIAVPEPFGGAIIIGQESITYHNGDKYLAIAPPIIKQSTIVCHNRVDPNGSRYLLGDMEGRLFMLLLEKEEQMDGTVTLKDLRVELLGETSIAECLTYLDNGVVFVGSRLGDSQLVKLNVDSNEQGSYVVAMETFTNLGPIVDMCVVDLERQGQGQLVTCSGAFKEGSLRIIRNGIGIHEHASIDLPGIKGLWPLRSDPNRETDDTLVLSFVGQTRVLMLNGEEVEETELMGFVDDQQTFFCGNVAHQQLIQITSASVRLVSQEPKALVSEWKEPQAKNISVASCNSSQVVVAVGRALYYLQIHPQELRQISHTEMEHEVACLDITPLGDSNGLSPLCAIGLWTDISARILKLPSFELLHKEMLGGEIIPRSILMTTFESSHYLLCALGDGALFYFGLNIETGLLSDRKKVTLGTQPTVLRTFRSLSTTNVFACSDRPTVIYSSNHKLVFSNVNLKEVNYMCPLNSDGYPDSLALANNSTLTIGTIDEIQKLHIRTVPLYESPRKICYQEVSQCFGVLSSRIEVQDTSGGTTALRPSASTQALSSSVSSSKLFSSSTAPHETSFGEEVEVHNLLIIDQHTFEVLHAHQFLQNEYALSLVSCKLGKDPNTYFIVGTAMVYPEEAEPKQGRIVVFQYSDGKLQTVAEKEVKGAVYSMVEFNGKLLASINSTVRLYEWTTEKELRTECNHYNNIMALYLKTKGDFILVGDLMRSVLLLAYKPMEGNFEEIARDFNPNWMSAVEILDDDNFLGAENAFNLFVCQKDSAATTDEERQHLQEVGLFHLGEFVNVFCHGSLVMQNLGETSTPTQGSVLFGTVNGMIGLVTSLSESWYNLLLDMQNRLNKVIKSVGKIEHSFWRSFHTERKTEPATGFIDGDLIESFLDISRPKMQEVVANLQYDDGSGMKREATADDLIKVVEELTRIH
Cyclin E1, sequence (P24864 whole entry): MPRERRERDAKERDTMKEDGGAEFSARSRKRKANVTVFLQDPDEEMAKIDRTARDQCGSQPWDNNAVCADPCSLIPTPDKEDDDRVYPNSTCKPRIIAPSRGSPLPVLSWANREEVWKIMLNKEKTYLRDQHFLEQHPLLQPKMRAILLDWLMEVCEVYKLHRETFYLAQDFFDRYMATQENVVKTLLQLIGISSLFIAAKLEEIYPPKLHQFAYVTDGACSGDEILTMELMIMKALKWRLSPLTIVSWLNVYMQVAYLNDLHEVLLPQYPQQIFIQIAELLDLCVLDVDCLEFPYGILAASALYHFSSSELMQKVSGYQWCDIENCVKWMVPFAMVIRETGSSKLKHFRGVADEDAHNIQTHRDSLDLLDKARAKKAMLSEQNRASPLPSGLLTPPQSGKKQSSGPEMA
Cyclin E1, sequence (Q96SW2 whole entry): as the sequence (Q96SW2 whole entry, the tested form may be a part) above
Cyclin E1, sequence (Q16531 whole entry partner): as the sequence (Q16531 whole entry partner, the tested form may be a part) above

One may read the DC50 as the concentration giving 50% degradation. Read a low DC50 as a more potent degrader. As a reminder, the Dmax is the greatest extent of degradation seen. Usually IC50 stands for the concentration that gives 50% inhibition. Low values mean greater potency, high ones weaker potency. Take `COc1c(COC(=O)Nc2ccc(Oc3ccc(F)cc3F)cc2C)ccc2c1C(=O)N(C1CCC(=O)NC1=O)C2` (stereo not drawn) [Example 42, [2-(2,6-dioxopiperidin-3-yl)-4-methoxy-3-oxo-2,3-dihydro-1H-isoindol-5-yl]methyl N-[4-(2,4-difluorophenoxy)-2-methylphenyl]carbamate]: at GSPT1, the DC50 is over 14000 nM and the Dmax stood at 20%. In addition, at Cyclin E1, the 50% degradation concentration (DC50) was 96 nM, the Dmax is 106% and the “Ratio of GSPT1 DC50/Cyclin E1 DC50” value is listed as over 146. Further, in the test on Phospho-Rb (Ser807/811), the IC50 stood at 132 nM and the Emax stood at 110%.

`COc1c(COC(=O)Nc2ccc(Oc3ccc(F)c(C)c3)cc2F)ccc2c1C(=O)N(C1CCC(=O)NC1=O)C2` (stereo not drawn) [Example 99, [2-(2,6-dioxopiperidin-3-yl)-4-methoxy-3-oxo-2,3-dihydro-1H-isoindol-5-yl]methyl N-[2-fluoro-4-(4-fluoro-3-methylphenoxy)phenyl]carbamate]: at GSPT1, the half-maximal degradation concentration (DC50) is over 14000 nM and the Dmax came to 22%. For the same compound, at Cyclin E1, it took 118 nM to reach half-maximal degradation (DC50), the Dmax was 109% and the “Ratio of GSPT1 DC50/Cyclin E1 DC50” value was over 118. For the same compound, in the test on Phospho-Rb (Ser807/811), the 50% inhibitory concentration (IC50) was found to be 221 nM and the Emax was determined as 114%.

As for `O=C1CCC(N2Cc3ccc(COC(=O)Nc4ccc(Oc5ccc(F)c(F)c5)cc4)c(O[C@@H]4CCOC4)c3C2=O)C(=O)N1` (stereo partly drawn) [Example 153, [2-(2,6-dioxopiperidin-3-yl)-3-oxo-4-[(3R)-oxolan-3-yloxy]-2,3-dihydro-1H-isoindol-5-yl]methyl N-[4-(3,4-difluorophenoxy)phenyl]carbamate], at GSPT1, the DC50 is over 14000 nM and the Dmax was 19%. Also, at Cyclin E1, the DC50 came to 84 nM, the Dmax amounted to 107% and the “Ratio of GSPT1 DC50/Cyclin E1 DC50” value was over 166. In the test with Phospho-Rb (Ser807/811), half-maximal inhibition (IC50) was put at 37 nM and the Emax is 124%.

Consider `COc1c(COC(=O)Nc2ccc(Oc3ccc(Cl)c(Cl)c3)cc2F)ccc2c1C(=O)N(C1CCC(=O)NC1=O)C2` (stereo not drawn) [Example 117, [2-(2,6-dioxopiperidin-3-yl)-4-methoxy-3-oxo-2,3-dihydro-1H-isoindol-5-yl]methyl N-[4-(3,4-dichlorophenoxy)-2-fluorophenyl]carbamate], for which, at GSPT1, the DC50 was over 14000 nM and the Dmax is 28%. Besides, on Cyclin E1, the DC50 came out at 104 nM, the Dmax worked out at 108% and the “Ratio of GSPT1 DC50/Cyclin E1 DC50” value was over 135. In addition, in the test with Phospho-Rb (Ser807/811), the 50% inhibitory concentration (IC50) stood at 115 nM and the Emax was 108%.

For `O=C1CCC(N2Cc3ccc(COC(=O)Nc4ccc(Oc5ccc(F)cc5)cc4)c(OC4CCOCC4)c3C2=O)C(=O)N1` (stereo not drawn) [Example 133, [2-(2,6-dioxopiperidin-3-yl)-4-(oxan-4-yloxy)-3-oxo-2,3-dihydro-1H-isoindol-5-yl]methyl N-[4-(4-fluorophenoxy)phenyl]carbamate], on GSPT1, the DC50 was over 14000 nM and the Dmax worked out at 16%. Further, at Cyclin E1, it took 25 nM to reach half-maximal degradation (DC50), the Dmax was 106% and the “Ratio of GSPT1 DC50/Cyclin E1 DC50” value was over 569. In the test with Phospho-Rb (Ser807/811), the half-inhibitory concentration (IC50) was determined as 42 nM and the Emax came out at 145%.

`O=C1CCC(N2Cc3ccc(COC(=O)Nc4ccc(Oc5cccc(F)c5F)cc4)c(Oc4ccccc4)c3C2=O)C(=O)N1` (stereo not drawn) [Example 68, [2-(2,6-dioxopiperidin-3-yl)-3-oxo-4-phenoxy-2,3-dihydro-1H-isoindol-5-yl]methyl N-[4-(2,3-difluorophenoxy)phenyl]carbamate]: at GSPT1, the DC50 is over 14000 nM and the Dmax was 16%. Further, on Cyclin E1, the DC50 amounted to 179 nM, the Dmax came out at 107% and the “Ratio of GSPT1 DC50/Cyclin E1 DC50” value was over 78. Also, in the test with Phospho-Rb (Ser807/811), the IC50 is 83 nM and the Emax was determined as 127%.

In the case of `CC(C)Oc1c(COC(=O)Nc2ccc(Oc3ccc(F)c(F)c3)cc2)ccc2c1C(=O)N([C@H]1CCC(=O)NC1=O)C2` (single isomer, unassigned) [Example 125], on GSPT1, the DC50 is over 14000 nM and the Dmax was determined as 7%. Moreover, at Cyclin E1, half-maximal degradation (DC50) was put at 263 nM, the Dmax stood at 107% and the “Ratio of GSPT1 DC50/Cyclin E1 DC50” value is listed as over 53. Moreover, in the test with Phospho-Rb (Ser807/811), the IC50 turned out to be 98 nM and the Emax came out at 138%.

On to `CC(C)(O)COc1c(COC(=O)Nc2ccc(Oc3cc(F)cc(F)c3)cc2F)ccc2c1C(=O)N(C1CCC(=O)NC1=O)C2` (stereo not drawn) [Example 164, [2-(2,6-dioxopiperidin-3-yl)-4-(2-hydroxy-2-methylpropoxy)-3-oxo-2,3-dihydro-1H-isoindol-5-yl]methyl N-[4-(3,5-difluorophenoxy)-2-fluorophenyl]carbamate], for which, at GSPT1, the DC50 was over 14000 nM and the Dmax is 2%. Further, at Cyclin E1, the DC50 was 75 nM, the Dmax came out at 118% and the “Ratio of GSPT1 DC50/Cyclin E1 DC50” value is over 187. Further, in the test with Phospho-Rb (Ser807/811), the IC50 was determined as 25 nM and the Emax turned out to be 142%.

As for `COc1c(COC(=O)Nc2ccc(Oc3ccc(F)c(C)c3)cc2C)ccc2c1C(=O)N(C1CCC(=O)NC1=O)C2` (stereo not drawn) [Example 82, [2-(2,6-dioxopiperidin-3-yl)-4-methoxy-3-oxo-2,3-dihydro-1H-isoindol-5-yl]methyl N-[4-(4-fluoro-3-methylphenoxy)-2-methylphenyl]carbamate], at GSPT1, the 50% degradation concentration (DC50) was over 14000 nM and the Dmax turned out to be 25%. Also, on Cyclin E1, the DC50 amounted to 327 nM, the Dmax was found to be 109% and the “Ratio of GSPT1 DC50/Cyclin E1 DC50” value is given as over 43. In addition, in the test with Phospho-Rb (Ser807/811), the IC50 worked out at 354 nM and the Emax came out at 97%.

As to `COc1c(COC(=O)Nc2ccc(Oc3cc(F)c(F)cc3Cl)cc2F)ccc2c1C(=O)N(C1CCC(=O)NC1=O)C2` (stereo not drawn) [Example 109, [2-(2,6-dioxopiperidin-3-yl)-4-methoxy-3-oxo-2,3-dihydro-1H-isoindol-5-yl]methyl N-[4-(2-chloro-4,5-difluorophenoxy)-2-fluorophenyl]carbamate], on GSPT1, the half-maximal degradation concentration (DC50) was over 14000 nM and the Dmax was found to be 42%. At Cyclin E1, the DC50 amounted to 111 nM, the Dmax was found to be 107% and the “Ratio of GSPT1 DC50/Cyclin E1 DC50” value is reported as over 127. Further, in the test with Phospho-Rb (Ser807/811), the IC50 turned out to be 66 nM and the Emax was 114%.

In the case of `COc1c(COC(=O)Nc2ccc(Cc3cc(F)c(F)c(F)c3)cc2)ccc2c1C(=O)N(C1CCC(=O)NC1=O)C2` (stereo not drawn) [Example 19, [2-(2,6-dioxopiperidin-3-yl)-4-methoxy-3-oxo-2,3-dihydro-1H-isoindol-5-yl]methyl N-{4-[(3,4,5-trifluorophenyl)methyl]phenyl}carbamate], at GSPT1, the half-maximal degradation concentration (DC50) is over 14000 nM and the Dmax was determined as 9%. On Cyclin E1, it took 146 nM to reach half-maximal degradation (DC50), the Dmax came out at 105% and the “Ratio of GSPT1 DC50/Cyclin E1 DC50” value is over 96. Besides, in the test on Phospho-Rb (Ser807/811), the half-inhibitory concentration (IC50) is 701 nM and the Emax was found to be 92%.

Regarding `COc1c(COC(=O)Nc2ccc(Oc3ccccc3C3CC3)cc2)ccc2c1C(=O)N(C1CCC(=O)NC1=O)C2` (stereo not drawn) [Example 87, [2-(2,6-dioxopiperidin-3-yl)-4-methoxy-3-oxo-2,3-dihydro-1H-isoindol-5-yl]methyl N-[4-(2-cyclopropylphenoxy)phenyl]carbamate], at GSPT1, the 50% degradation concentration (DC50) is over 14000 nM and the Dmax stood at 39%. Moreover, on Cyclin E1, the DC50 is 414 nM, the Dmax turned out to be 100% and the “Ratio of GSPT1 DC50/Cyclin E1 DC50” value was over 34. In the test with Phospho-Rb (Ser807/811), 272 nM corresponded to half-maximal inhibition (IC50) and the Emax is 98%.

`COCCOc1c(COC(=O)Nc2ccc(Oc3ccc(F)c(F)c3)cc2)ccc2c1C(=O)N(C1CCC(=O)NC1=O)C2` (stereo not drawn) [Example 168, [2-(2,6-dioxopiperidin-3-yl)-4-(2-methoxyethoxy)-3-oxo-2,3-dihydro-1H-isoindol-5-yl]methyl N-[4-(3,4-difluorophenoxy)phenyl]carbamate]: on GSPT1, the DC50 is over 14000 nM and the Dmax worked out at 33%. Further, on Cyclin E1, it took 62 nM to reach half-maximal degradation (DC50), the Dmax came out at 110% and the “Ratio of GSPT1 DC50/Cyclin E1 DC50” value was over 226. In addition, in the test on Phospho-Rb (Ser807/811), the IC50 turned out to be 19 nM and the Emax was 118%.

`COc1cc(Oc2cc(F)c(F)c(F)c2)ccc1NC(=O)OCc1ccc2c(c1OC)C(=O)N(C1CCC(=O)NC1=O)C2` (stereo not drawn) [Example 72, [2-(2,6-dioxopiperidin-3-yl)-4-methoxy-3-oxo-2,3-dihydro-1H-isoindol-5-yl]methyl N-[2-methoxy-4-(3,4,5-trifluorophenoxy)phenyl]carbamate]: on GSPT1, the half-maximal degradation concentration (DC50) was over 14000 nM and the Dmax turned out to be 5%. Also, on Cyclin E1, it took 394 nM to reach half-maximal degradation (DC50), the Dmax came out at 103% and the “Ratio of GSPT1 DC50/Cyclin E1 DC50” value was over 36. Besides, in the test with Phospho-Rb (Ser807/811), the IC50 came to 364 nM and the Emax came out at 120%.

In the case of `COc1ccccc1Oc1ccc(NC(=O)OCc2ccc3c(c2OC)C(=O)N(C2CCC(=O)NC2=O)C3)cc1` (stereo not drawn) [Example 31, [2-(2,6-dioxopiperidin-3-yl)-4-methoxy-3-oxo-2,3-dihydro-1H-isoindol-5-yl]methyl N-[4-(2-methoxyphenoxy)phenyl]carbamate], on GSPT1, the DC50 is 6600 nM and the Dmax amounted to 64%. On Cyclin E1, the DC50 is 735 nM, the Dmax was 83% and the “Ratio of GSPT1 DC50/Cyclin E1 DC50” value is on record as 9. In the test on Phospho-Rb (Ser807/811), the 50% inhibitory concentration (IC50) turned out to be 2310 nM and the Emax worked out at 81%.

The values are drawn from patent US20250084056A1, “SUBSTITUTED OXOISOINDOLINYL PIPERIDINE-2,6-DIONE COMPOUNDS” (BRISTOL-MYERS SQUIBB COMPANY, priority 2023, published 2025).
